Results as given in US10202361B2, “Pyridazinones as herbicides” (E I DU PONT DE NEMOURS AND COMPANY, priority 2014, dated 2019).
Where two headings read alike, the source gives them in different places.

Experiments:
Assay in all cases: Test C pre-/postemergence greenhouse herbicide test
Format in all cases: in vivo
[1] = tested on: lambsquarters (Chenopodium album); conditions: Preemergence
From the text: (§1) Seeds of plant species selected from blackgrass (Alopecurus myosuroides), bromegrass, downy (downy bromegrass, Bromus tectorum), foxtail, green (green foxtail, Setaria viridis), ryegrass, Italian (Italian ryegrass, Lolium multiflorum), wheat (winter wheat, Triticum aestivum), oat, wild (wild oat, Avena fatua), galium (catchweed bedstraw, Galium aparine), bermudagrass (Cynodon dactylon), surinam grass (Brachiaria decumbens), cocklebur (common cocklebur, Xanthium strumarium), corn (Zea mays), crabgrass, large (large crabgrass, Digitaria sanguinalis), cupgrass, woolly (woolly cupgrass, Eriochloa villosa), foxtail, giant (giant foxtail, Setaria faberii), goosegrass (Eleusine indica), johnsongrass (Sorghum halepense), kochia (Kochia scoparia), lambsquarters (Chenopodium album), morningglory (Ipomoea coccinea), nightshade (eastern black nightshade, Solanum ptycanthum), nutsedge, yellow (yellow nutsedge, Cyperus esculentus), pigweed (Amaranthus retroflexus), ragweed (common ragweed, Ambrosia elatior), soybean (Glycine max), sunflower (common oilseed sunflower, Helianthus annuus), Russian thistle (Salsola kali), barnyardgrass (Echinochloa crus-galli), oilseed rape (Brassica napus), waterhemp (common waterhemp, Amaranthus rudis), and velvetleaf (Abutilon theophrasti) were planted into a blend of loam soil and sand and treated preemergence with test chemicals formulated in a non-phytotoxic solvent mixture which included a surfactant.
(§2) At the same time, plants selected from these crop and weed species and also barley (winter barley, Hordeum vulgare), canarygrass (Phalaris minor), windgrass (Apera spica-venti), deadnettle (henbit deadnettle, Lamium amplexicaule), and chickweed (common chickweed, Stellaria media) were planted in pots containing Redi-Earth® planting medium (Scotts Company, 14111 Scottslawn Road, Marysville, Ohio 43041) comprising spaghnum peat moss, vermiculite, wetting agent and starter nutrients and treated with postemergence applications of test chemicals formulated in the same manner. Plants ranged in height from 2 to 18 cm (1- to 4-leaf stage) for postemergence treatments. Treated plants and controls were maintained in a greenhouse for 13 to 15 d, after which time all species were compared to controls and visually evaluated. Plant response ratings, summarized in Table C, are based on a scale of 0 to 100 where 0 is no effect and 100 is complete control. A dash (-) response means no test result.

[2] = tested on: nutsedge, yellow (yellow nutsedge, Cyperus esculentus); conditions: Cyperus, Nutsedge, Yellow, read-out: Plant response rating; for pest or weed control at 31 g/ha: 31 g ai/ha; for pest or weed control at 62 g/ha: 62 g ai/ha; for pest or weed control at 125 g/ha: 125 g ai/ha; for pest or weed control at 250 g/ha: 250 g ai/ha
From the text: as §1, §2

[3] = tested on: oilseed rape (Brassica napus); conditions: Oilseed Rape
From the text: as §1, §2

[4] = tested on: ryegrass, Italian (Italian ryegrass, Lolium multiflorum); conditions: Lolium multiflorum, Ryegrass, Italian, read-out: Plant response rating; for pest or weed control at 31 g/ha: 31 g ai/ha; for pest or weed control at 62 g/ha: 62 g ai/ha; for pest or weed control at 125 g/ha: 125 g ai/ha; for pest or weed control at 250 g/ha: 250 g ai/ha
From the text: as §1, §2

soybean (Glycine max) = conditions: Glycine max, Soybean, read-out: Plant response rating; for plant injury at 62 g/ha: 62 g ai/ha; for plant injury at 125 g/ha: 125 g ai/ha; for plant injury at 250 g/ha: 250 g ai/ha
From the text: as §1, §2

[5] = tested on: velvetleaf (Abutilon theophrasti); conditions: Abutilon theophrasti, Velvetleaf, read-out: Plant response rating; for pest or weed control at 62 g/ha: 62 g ai/ha; for pest or weed control at 125 g/ha: 125 g ai/ha; for pest or weed control at 250 g/ha: 250 g ai/ha
From the text: as §1, §2

[6] = tested on: waterhemp (common waterhemp, Amaranthus rudis); conditions: Waterhemp
From the text: as §1, §2

[7] = post-emergence, Postemergence, 31 g ai/ha

## Cc1cc(=O)n(-c2ccc(F)cc2)nc1Cc1ccnc(C(F)(F)F)c1 [Compound 1, 2-(4-fluorophenyl)-5-methyl-6-[[2-(trifluoromethyl)-4-pyridinyl]methyl]-3(2H)-pyridazinone]
[1]; 62 g ai/ha
  Plant response rating: 100
[1]; 125 g ai/ha
  Plant response rating: 100
[1]; 250 g ai/ha
  Plant response rating: 100
[2]; post-emergence, Postemergence
  pest or weed control at 31 g/ha: 0%
  pest or weed control at 62 g/ha: 5%
  pest or weed control at 125 g/ha: 5%
  pest or weed control at 250 g/ha: 5%
[2]; pre-emergence, Preemergence
  pest or weed control at 31 g/ha: 10%
  pest or weed control at 62 g/ha: 30%
  pest or weed control at 125 g/ha: 50%
  pest or weed control at 250 g/ha: 55%
[3]; Postemergence, 31 g ai/ha
  Plant response rating: 5
[3]; Postemergence, 62 g ai/ha
  Plant response rating: 5
[3]; Postemergence, 125 g ai/ha
  Plant response rating: 10
[3]; Postemergence, 250 g ai/ha
  Plant response rating: 30
[3]; Preemergence, 31 g ai/ha
  Plant response rating: 30
[3]; Preemergence, 62 g ai/ha
  Plant response rating: 80
[3]; Preemergence, 125 g ai/ha
  Plant response rating: 100
[3]; Preemergence, 250 g ai/ha
  Plant response rating: 100
[4]; post-emergence, Postemergence
  pest or weed control at 31 g/ha: 5%
  pest or weed control at 62 g/ha: 5%
  pest or weed control at 125 g/ha: 5%
  pest or weed control at 250 g/ha: 5%
[4]; pre-emergence, Preemergence
  pest or weed control at 31 g/ha: 5%
  pest or weed control at 62 g/ha: 10%
  pest or weed control at 125 g/ha: 85%
  pest or weed control at 250 g/ha: 98%
Soybean (Glycine max); [7]
  plant injury at 31 g/ha: 35%
Soybean (Glycine max); post-emergence, Postemergence
  plant injury at 62 g/ha: 40%
  plant injury at 125 g/ha: 50%
  plant injury at 250 g/ha: 70%
Soybean (Glycine max); pre-emergence, Preemergence
  plant injury at 62 g/ha: 60%
  plant injury at 125 g/ha: 95%
  plant injury at 250 g/ha: 98%
[5]; [7]
  pest or weed control at 31 g/ha: 10%
[5]; post-emergence, Postemergence
  pest or weed control at 62 g/ha: 20%
  pest or weed control at 125 g/ha: 20%
  pest or weed control at 250 g/ha: 30%
[5]; pre-emergence, Preemergence
  pest or weed control at 62 g/ha: 35%
  pest or weed control at 125 g/ha: 40%
  pest or weed control at 250 g/ha: 100%
[6]; Postemergence, 31 g ai/ha
  Plant response rating: 50
[6]; Postemergence, 62 g ai/ha
  Plant response rating: 50
[6]; Postemergence, 125 g ai/ha
  Plant response rating: 65
[6]; Postemergence, 250 g ai/ha
  Plant response rating: 65
[6]; Preemergence, 62 g ai/ha
  Plant response rating: 100
[6]; Preemergence, 125 g ai/ha
  Plant response rating: 100
[6]; Preemergence, 250 g ai/ha
  Plant response rating: 100
